Assay results published in the NIST ThermoML archive (doi:10.1021/je9005757).

Assay: cn = amount concentration of the nth substance listed, in mol/dm3
Conditions: 101 kPa, Liquid; for molar conductivity: Shedlovsky-type conductance cell; for binary diffusion coefficient: Open capillary

CN[C@@H](C)[C@H](O)c1ccccc1.Cl [ephedrine hydrochloride] + O
Conditions | binary diffusion coefficient, 298.15 K [m2/s] | molar conductivity, 283.15 K [S·m2/mol] | molar conductivity, 293.15 K [S·m2/mol] | molar conductivity, 298.15 K [S·m2/mol]
c1 = 0.00125 | 1.15e-09 | – | – | –
c1 = 0.00184 | – | 0.006571 | 0.008375 | 0.009463
c1 = 0.002438 | – | 0.006463 | 0.008198 | 0.009282
c1 = 0.0025 | 1.1e-09 | – | – | –
c1 = 0.00303 | – | 0.006355 | 0.008059 | 0.009127
c1 = 0.003614 | – | 0.00628 | 0.007907 | 0.008991
c1 = 0.004191 | – | 0.006181 | 0.007775 | 0.00886
c1 = 0.004761 | – | 0.006103 | 0.007663 | 0.008753
c1 = 0.00499 | 1.09e-09 | – | – | –
c1 = 0.005324 | – | 0.006044 | 0.007564 | 0.008653
c1 = 0.005881 | – | 0.00599 | 0.007468 | 0.008556
c1 = 0.006431 | – | 0.005925 | 0.007377 | 0.008465
c1 = 0.006975 | – | 0.00586 | 0.007288 | 0.008374
c1 = 0.00746 | 1.03e-09 | – | – | –
c1 = 0.007513 | – | 0.005794 | 0.007199 | 0.008283
c1 = 0.008044 | – | 0.005736 | 0.007119 | 0.008199
c1 = 0.008569 | – | 0.005685 | 0.007044 | 0.00812
c1 = 0.009089 | – | 0.005635 | 0.006974 | 0.008044
c1 = 0.009602 | – | 0.005584 | 0.006908 | 0.007975
c1 = 0.01 | 1e-09 | – | – | –
c1 = 0.01011 | – | 0.005537 | 0.006846 | 0.007908
c1 = 0.01061 | – | 0.005491 | 0.006795 | 0.00784
c1 = 0.01111 | – | 0.005446 | 0.006723 | 0.007774
c1 = 0.0116 | – | 0.005401 | 0.006663 | 0.007709
c1 = 0.01209 | – | 0.005359 | 0.006604 | 0.007646
c1 = 0.01256 | – | 0.00532 | 0.006549 | 0.007586
c1 = 0.01304 | – | 0.005281 | 0.006498 | 0.00753
c1 = 0.01351 | – | 0.005244 | 0.006448 | 0.007474
c1 = 0.01397 | – | 0.00521 | 0.0064 | 0.007422
c1 = 0.01443 | – | 0.005176 | 0.006354 | 0.00737
c1 = 0.01489 | – | 0.00514 | 0.006307 | 0.007318
c1 = 0.01534 | – | 0.005107 | 0.00626 | 0.007267
c1 = 0.01579 | – | 0.005075 | 0.006217 | 0.007217
c1 = 0.01623 | – | 0.005042 | 0.006174 | 0.00717
c1 = 0.01666 | – | 0.005011 | 0.006133 | 0.007125
